Source: US20090233993A1, “COMPOSITIONS AND METHODS FOR INHIBITING GSK3 ACTIVITY AND USES THEREOF” (Burnham Institute for Medical Research, priority 2008, published 2009)

Key:
PKA = PKA inhibitor H89 treatment of FG01-transfected N2aSwe cells; assay type: cell-based, mouse; details: H89 2 μM, 4 hrs, FG01-transfected N2a/Swe cells
Description: After 48 hr incubation, cell media were changed to Opti-MEM (Invitrogen) containing DMSO or a PKA activity inhibitor H89 (2 μM) and cells were incubated for additional 4 hrs. The cell media were used for Aβ immunoprecipitation-Western blotting and cell lysates were subjected to Western blotting for p-CREB (substrate for PKA) and p-GSK3β. As shown, inhibiting PKA activity with H89 prevented serine phosphorylation of CREB and GSK3β by FG01.
N2aSwe cells were transfected with control vector or FG01 and then equally split. Four hours before collection, cells were treated with the GSK-3 inhibitor lithium chloride (5 mM) or sodium chloride (5 mM, as control). Alternatively, cells were treated with a PKA inhibitor H89 at 10 μM or with DMSO for control.

FG01 = FG01 RNA interference in N2aSwe cells; assay type: cell-based, mouse
Excerpt: Cells were collected for mRNA extraction, reverse-transcription, and PCR amplification with FG01 specific primers to study the knockdown efficiency (upper panel), n=3. Alternatively, cells were lysed and cell lysates subjected to Western blotting for p-CREB, CREB, p-GSK3β, and GSK3β. Aβ in conditioned media was subjected to immunoprecipitation-Western blotting (lower panels). As shown, knockdown of FG01 coincided with a concomitant decrease in GSK3β phosphorylation (inactivation). **: p<0.01. […] Moreover, as PKA is a cAMP-dependent protein kinase, FG01 is likely having this effect through adenylyl cyclase (AC) activation of cAMP.
The mouse FG01 siRNA used was: 5′-[…]-3′ (SEQ ID NO:20). The control siRNA was from Invitrogen. siRNA was transfected into N2a cells using Lipofectamine RNAiMAX reagent (Invitrogen), following the manufacturer's protocol. After FG01 RNA interference, total RNA was extracted from N2a cells by Trizol reagent (Invitrogen). After reverse transcription into first strand cDNA using standard conditions, samples were analyzed independently by real-time PCR using an iCycler iQ with SYBR green supermix (Bio-Rad). The FG01 primer pair used for amplification was: 5′: […] (SEQ ID NO:21) and 3′: […] (SEQ ID NO:22). A pair of β-actin primers served as controls (Zhang et al., 2007).

[1] = downregulation of endogenous FG01 in N2aSwe cells

Compound | serine phosphorylation of CREB by FG01 (PKA) | serine phosphorylation of GSK3β by FG01 (PKA) | Aβ generation (FG01; [1]) | CREB phosphorylation (FG01; [1]) | GSK-3 activity (FG01; [1]) | GSK3β phosphorylation (inactivation) (FG01; knockdown of FG01 in N2a/Swe cells vs scramble siRNA)
O=S(=O)(NCCNC/C=C/c1ccc(Br)cc1)c1cccc2cnccc12 [H89, reference compound] | prevented | prevented | – | – | – | –
FG01 siRNA: mouse FG01 siRNA 5′-UACUGUUUGUCAUGCCACUUCUGAU-3′ (SEQ ID NO:20) (listed as RNA, chemistry not given here) | – | – | increased | dramatically reduced | increased | decrease
